Columns and labels:
CWR22R [1] = assay: Antiproliferative activity against human 22Rv1 cells after 96 hrs by propidium iodide staining based fluorescence 2D monolayer assay; format: functional, cell-based; conditions: 22Rv1, 96 h
DU-145 [2] = assay: Antiproliferative activity against human DU145 cells after 96 hrs by propidium iodide staining based fluorescence 2D monolayer assay; format: functional, cell-based; conditions: DU-145, 96 h
LNCaP [3] = assay: Antiproliferative activity against human LNCAP cells after 96 hrs by propidium iodide staining based fluorescence 2D monolayer assay; format: functional, cell-based
VCaP [4] = assay: Antiproliferative activity against human VCaP cells after 96 hrs by propidium iodide staining based fluorescence 2D monolayer assay; format: functional, cell-based
LNCaP [5] = assay: Potency index, ratio of enzalutamide IC50 to compound IC50 for human LNCAP cells; format: functional
[6] = target: T1, Androgen receptor (Rattus norvegicus) (UniProt P15207); assay: (§1) Antagonist activity at rat androgen receptor fused with DNA-binding domain of GAL4 expressed in AR-UAS-bla GripTite 293 cells assessed as inhibition of R1881-induced receptor activation preincubated for 30 mins followed by R1881 addition measured after 16 to 24 hrs by betalactamase reporter gene assay; format: cell-based
T1 sequence (whole entry): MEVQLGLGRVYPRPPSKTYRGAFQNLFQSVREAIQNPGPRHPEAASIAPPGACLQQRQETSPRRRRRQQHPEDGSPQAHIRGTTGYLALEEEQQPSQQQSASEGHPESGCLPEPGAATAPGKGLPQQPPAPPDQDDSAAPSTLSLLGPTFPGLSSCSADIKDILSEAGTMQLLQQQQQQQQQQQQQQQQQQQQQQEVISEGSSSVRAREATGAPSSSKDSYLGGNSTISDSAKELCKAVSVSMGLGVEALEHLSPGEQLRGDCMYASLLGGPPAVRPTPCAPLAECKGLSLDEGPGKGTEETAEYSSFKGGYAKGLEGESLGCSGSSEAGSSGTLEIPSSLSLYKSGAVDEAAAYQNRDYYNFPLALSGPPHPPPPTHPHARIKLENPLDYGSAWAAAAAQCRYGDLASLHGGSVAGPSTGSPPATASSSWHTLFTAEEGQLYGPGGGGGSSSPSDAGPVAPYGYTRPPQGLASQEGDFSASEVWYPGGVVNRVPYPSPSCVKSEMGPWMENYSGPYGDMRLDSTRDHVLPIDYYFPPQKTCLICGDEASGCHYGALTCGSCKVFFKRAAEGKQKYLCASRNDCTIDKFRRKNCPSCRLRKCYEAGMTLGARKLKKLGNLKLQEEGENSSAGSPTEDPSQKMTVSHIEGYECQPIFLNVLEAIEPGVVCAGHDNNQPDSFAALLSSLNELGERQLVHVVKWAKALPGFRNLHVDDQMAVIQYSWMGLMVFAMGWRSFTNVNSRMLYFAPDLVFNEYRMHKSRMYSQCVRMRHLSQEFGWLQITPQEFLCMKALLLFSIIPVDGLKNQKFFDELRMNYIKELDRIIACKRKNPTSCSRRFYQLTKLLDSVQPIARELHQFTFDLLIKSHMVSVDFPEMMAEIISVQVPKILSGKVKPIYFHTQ

Androgen receptor = target: T2, Androgen receptor (Rattus norvegicus, UniProt P15207); assay: as §1; format: cell-based
T2 sequence (P15207 whole entry): T1 sequence (whole entry)

LNCaP [7] = assay: Antiproliferative activity against human LNCAP cells assessed as relative inhibition after 96 hrs by propidium iodide staining based fluorescence 2D monolayer assay; format: functional, cell-based
DU-145 [8] = assay: Antiproliferative activity against human DU145 cells assessed as relative inhibition after 96 hrs by propidium iodide staining based fluorescence 2D monolayer assay; format: functional, cell-based; conditions: DU-145, 96 h
CWR22R [9] = assay: Antiproliferative activity against human 22Rv1 cells assessed as relative inhibition after 96 hrs by propidium iodide staining based fluorescence 2D monolayer assay; format: functional, cell-based; conditions: 22Rv1, 96 h
VCaP [10] = assay: Antiproliferative activity against human VCaP cells assessed as relative inhibition after 96 hrs by propidium iodide staining based fluorescence 2D monolayer assay; format: functional, cell-based
[11] = 96 h
Description: Solubility in RPMI1640 culture medium at <30 uM incubated for 4 days by microscopic analysis

[12] = 33000 µM
Description: Solubility in 100% DMSO at 33 mM at -20 degC

CWR22R [13] = assay: Potency index, ratio of bicalutamide IC50 to compound IC50 for human 22Rv1 cells; format: functional
DU-145 [14] = assay: Potency index, ratio of bicalutamide IC50 to compound IC50 for human DU145 cells; format: functional
LNCaP [15] = assay: Potency index, ratio of bicalutamide IC50 to compound IC50 for human LNCAP cells; format: functional
VCaP [16] = assay: Potency index, ratio of bicalutamide IC50 to compound IC50 for human VCaP cells; format: functional
CWR22R [17] = assay: Potency index, ratio of (R)-bicalutamide IC50 to compound IC50 for human 22Rv1 cells; format: functional
DU-145 [18] = assay: Potency index, ratio of (R)-bicalutamide IC50 to compound IC50 for human DU145 cells; format: functional
LNCaP [19] = assay: Potency index, ratio of (R)-bicalutamide IC50 to compound IC50 for human LNCAP cells; format: functional
VCaP [20] = assay: Potency index, ratio of (R)-bicalutamide IC50 to compound IC50 for human VCaP cells; format: functional
[21] = target: T1, Androgen receptor (Rattus norvegicus); assay: as §1, with “activation at 1 uM” for “activation”, “assay relative to control” for “assay”; format: cell-based

Compound: CC1(C)C(=O)N(c2ccc(C(F)(F)F)cc2)C(=O)N1c1ccc([N+](=O)[O-])c(C(F)(F)F)c1
- IC50 (CWR22R [1]): ≥ 100 µM
- IC70 (CWR22R [1]): > 100 µM
- IC50 (DU-145 [2]): ≥ 100 µM
- IC70 (DU-145 [2]): > 100 µM
- IC50 (LNCaP [3]): 2.12 µM
- IC70 (LNCaP [3]): 9.64 µM
- IC50 (VCaP [4]): 73.1 µM
- IC70 (VCaP [4]): > 100 µM
- Ratio IC50 (LNCaP [5]): <=5
- inhibition [6]: Dose-dependent effect
- IC50 (Androgen receptor): 0.0803 µM
- IC50 (LNCaP [7]): 1.64 µM
- IC70 (LNCaP [7]): 7.89 µM
- IC50 (DU-145 [8]): > 100 µM
- IC70 (DU-145 [8]): > 100 µM
- IC50 (CWR22R [9]): 41.6 µM
- IC70 (CWR22R [9]): > 100 µM
- IC50 (VCaP [10]): 0.053 µM
- IC70 (VCaP [10]): 7.76 µM
- solubility [11]: Soluble
- solubility [12]: Soluble

Compound: C[C@](O)(CS(=O)(=O)c1ccc(C(F)(F)F)cc1)C(=O)Nc1ccc(C#N)c(C(F)(F)F)c1
- IC50 (CWR22R [1]): 20.2 µM
- IC50 (DU-145 [2]): 26.8 µM
- IC50 (LNCaP [3]): 17.5 µM
- IC50 (VCaP [4]): 31.4 µM
- Ratio IC50 (CWR22R [13]): <=2
- Ratio IC50 (DU-145 [14]): <=2
- Ratio IC50 (LNCaP [15]): <=2
- Ratio IC50 (VCaP [16]): <=2
- Ratio IC50 (CWR22R [17]): 2
- Ratio IC50 (DU-145 [18]): 2
- Ratio IC50 (LNCaP [19]): 2
- Ratio IC50 (VCaP [20]): 2
- inhibition [6]: Dose-dependent effect
- IC50 (Androgen receptor): 0.775 µM
- solubility [11]: Soluble
- solubility [12]: Soluble

Compound: CC(O)(COc1ccc(C#N)c(F)c1)C(=O)Nc1ccc([N+](=O)[O-])c(C(F)(F)F)c1 (stereo unspecified)
- IC50 (CWR22R [1]): 11.8 µM
- IC50 (DU-145 [2]): 16.4 µM
- IC50 (LNCaP [3]): 7.71 µM
- IC50 (VCaP [4]): 12.4 µM
- inhibition [21]: 65%
- inhibition [6]: Dose-dependent effect
- IC50 (Androgen receptor): 0.0492 µM
- solubility [11]: Soluble
- solubility [12]: Soluble

From ChEMBL document CHEMBL4477199, “Design and synthesis of novel bicalutamide and enzalutamide derivatives as antiproliferative agents for the treatment of prostate cancer” (Eur J Med Chem, 2016)
